From patent publication US4678775A, “Method of controlling pests” (priority 1984, dated 1987)
Read-outs that look alike come from different tables or passages of the source.

Legend:
[1] = system: octopamine-sensitive adenylate cyclase; test: Activation of octopamine-sensitive adenylate cyclase, firefly light organ broken cell preparation; assay type: biochemical, Photinus pyralis
[2] = system: tobacco hornworms (Manducca sexta); test: In vivo leaf test (antifeeding) on tomato leaves with tobacco hornworm larvae; conditions: for effect of addition of IBMX on antifeeding / pesticidal activity: with PDE inhibitor IBMX; for rank order antifeeding effectiveness: based on the EC50 of the octopamine agonist, alone or +IBMX
[3] = biological target: T1, Beta1 and Beta2-adrenergic-stimulated adenylate cyclase in rat liver (Rattus norvegicus, UniProt P10608); test: Adenylate cyclase stimulation in rat liver; assay type: biochemical
T1 construct: adenylate cyclase in rat heart and liver; from tissue; host or cells: rat liver
T1 sequence (P10608 whole entry): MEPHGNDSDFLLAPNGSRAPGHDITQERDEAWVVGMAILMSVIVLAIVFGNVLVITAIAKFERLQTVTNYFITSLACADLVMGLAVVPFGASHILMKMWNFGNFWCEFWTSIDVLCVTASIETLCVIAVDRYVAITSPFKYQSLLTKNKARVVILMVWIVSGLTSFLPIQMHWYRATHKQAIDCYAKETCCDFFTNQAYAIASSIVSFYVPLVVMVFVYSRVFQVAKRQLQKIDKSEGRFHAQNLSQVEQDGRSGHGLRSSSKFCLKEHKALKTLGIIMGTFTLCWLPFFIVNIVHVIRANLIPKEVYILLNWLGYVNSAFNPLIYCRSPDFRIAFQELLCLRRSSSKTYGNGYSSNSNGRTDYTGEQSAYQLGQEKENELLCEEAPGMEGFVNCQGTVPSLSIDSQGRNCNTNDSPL

[4] = system: adenylate cyclase in nerve cord of tobacco hornworm; test: Adenylate cyclase activation in broken cell preparations of tobacco hornworm nerve cord; assay type: biochemical, tobacco hornworm (Manducca sexta); conditions: FIG. 1
Method: Otherwise, the procedure is identical to that described above.
The tissue is homogenized (usually 15 mg/ml) as above in 6 mM Tris maleate, pH 7.4. […] This is done to cancel out the effects of dopamine and serotonin receptors which are usually present in nerve cord.
As detailed previously, the adenylate cyclase assay, either in the firefly or in other insect pest, is also used to identify a direct stimulator of adenylate cyclase.

[5] = system: cyclic AMP in intact nerve cords of tobacco hornworms; test: Cyclic AMP content of intact tobacco hornworm nerve cords; assay type: cell-based; conditions: 5 minutes
Method: After 5 minutes, the intact nerve cord was quickly treated to release all cyclic AMP which was present within the tissue.

[6] = Table 1, ratio greater than 1 = better than (±)-p-octopamine
[7] = Table 5, agonist 1 gm/100 ml, IBMX 0.1 g/100 ml
[8] = Table 5, agonist 1 gm/100 ml, No PDE Inhibitor
[9] = Table 5, agonist 10^-1 gm/100 ml, IBMX 0.1 g/100 ml
[10] = Table 5, agonist 10^-1 gm/100 ml, No PDE Inhibitor
[11] = Table 5, agonist 10^-2 gm/100 ml, IBMX 0.1 g/100 ml
[12] = Table 5, agonist 10^-2 gm/100 ml, No PDE Inhibitor
[13] = Table 2, clonidines, N.A. = no activity
[14] = Table 1, maximal activation as % of that by (±)-p-octopamine, N.A. = No Activity
[15] = Table 4, agonist 10^-1 gm/100 ml, No PDE Inhibitor
[16] = Table 4, agonist 10^-2 gm/100 ml, No PDE Inhibitor

CNCCc1ccc(O)c(O)c1 [Nmethyldopamine, reference compound]
Ka^oct/Ka^(1) ratio (column head is drawing 15) [1, 6]: 0.19

NCCc1ccc(O)cc1 [tyramine, reference compound]
Ka^oct/Ka^(1) ratio (column head is drawing 15) [1, 6]: 0.15

c1ccc(N=C2NCCN2)cc1 [NC 10]
% Leaf Remaining [2, 7]: 15% | % Leaf Remaining [2, 8]: 5% | % Leaf Remaining [2, 9]: 13% | % Leaf Remaining [2, 10]: 5% | % Leaf Remaining [2, 11]: 15% | % Leaf Remaining [2, 12]: 5% | % Leaf Remaining ([2]; Table 5, agonist 10^-3 gm/100 ml, IBMX 0.1 g/100 ml): 12% | % Leaf Remaining ([2]; Table 5, agonist 10^-3 gm/100 ml, No PDE Inhibitor): 5% | antifeeding activity ([2]; compound itself, in words): lacked antifeeding activity both in the absence or presence of the PDE inhibitor

Clc1cc(Cl)c(N=C2NCCN2)c(Cl)c1 [NC 11]
Ka ratio to octopamine ([1]; Table 2, clonidines): 1.9 | Vmax (% OCT) [1, 13]: 60 % OCT

NCC(O)c1cccc(O)c1 (racemic) [(±)-m-octopamine, reference compound]
pesticidal activity ([2]; no IBMX): much less pesticidal activity than p-octopamine | Vmax (% OCT) [1, 14]: 9 ± 1 % OCT | Ka^oct/Ka^(1) ratio (column head is drawing 15) [1, 6]: 0.1

CNCC(O)c1ccc(O)cc1 (racemic) [(±)-Nmethyloctopamine]
% Leaf Remaining ([2]; Table 4, agonist 1 gm/100 ml, IBMX 0.1 g/100 ml): 90% | % Leaf Remaining ([2]; Table 4, agonist 1 gm/100 ml, No PDE Inhibitor): 30% | % Leaf Remaining ([2]; Table 4, agonist 10^-1 gm/100 ml, IBMX 0.1 g/100 ml): 55% | % Leaf Remaining [2, 15]: < 5% | % Leaf Remaining ([2]; Table 4, agonist 10^-2 gm/100 ml, IBMX 0.1 g/100 ml): 42% | % Leaf Remaining [2, 16]: < 5% | Ka^oct/Ka^(1) ratio (column head is drawing 15) [1]: 1.8

CN(C)c1cc(Cl)c(N=C2NCCN2)c(Cl)c1 [NC 15]
Ka ratio to octopamine ([1]; Table 2, clonidines): 1.9 | Vmax (% OCT) [1, 13]: 38 % OCT

NCCc1ccccc1 [β-phenylethylamine, reference compound]
Ka^oct/Ka^(1) ratio (column head is drawing 15) [1]: 0.03

Nc1cc(Cl)c(N=C2NCCN2)c(Cl)c1 [NC 14]
Ka ratio to octopamine ([1]; Table 2, clonidines): 0.7 | Vmax (% OCT) [1, 13]: 29 % OCT

NC[C@H](O)c1ccc(O)c(O)c1 [(-)-nonrepinephrine, reference compound]
Ka^oct/Ka^(1) ratio (column head is drawing 15) [1, 6]: 0.13

CNC(C)C(O)c1ccc(O)cc1 (racemic) [(±)-α-methylsynephrine, reference compound]
Vmax (% OCT) [1, 14]: 7 ± 2 % OCT | Ka^oct/Ka^(1) ratio (column head is drawing 15) [1, 6]: < 0.01

CNC[C@H](O)c1ccc(O)c(O)c1 [(-)-epinephrine, reference compound]
Ka^oct/Ka^(1) ratio (column head is drawing 15) [1]: 0.20

COc1ccc(CCN)cc1 [p-methoxyphenylethylamine, reference compound]
Vmax (% OCT) [1, 14]: 6 ± 3 % OCT | Ka^oct/Ka^(1) ratio (column head is drawing 15) [1, 6]: 0.10

CC(N)Cc1ccc(O)cc1 (racemic) [(±)-p-hydroxyamphetamine, reference compound]
Ka^oct/Ka^(1) ratio (column head is drawing 15) [1]: < 0.05 | Vmax (% OCT) [1, 14]: 8 ± 3 % OCT

Cc1ccc(N=C2NCCN2)c(C)c1 [NC 9]
octopamine potency ratio [1]: 5.1 | Ka ratio to octopamine ([1]; Table 2, clonidines): 5.1 | Vmax (% OCT) [1, 13]: 78 % OCT

Clc1ccc(Cl)c(N=C2NCCN2)c1 [NC 2]
Ka ratio to octopamine ([1]; Table 2, clonidines): 1.1 | Vmax (% OCT) [1, 13]: 9 % OCT

CC(C)NC[C@H](O)c1ccc(O)c(O)c1 [(-)-isoproterenol, reference compound]
stimulation of adenylate cyclase [3]: potently stimulates

Nc1ncnc2c1nc(Sc1ccc(Cl)cc1)n2[C@@H]1O[C@@H]2COP(=O)(O)O[C@H]2[C@H]1O [p-Cl-phenylthio cyclic AMP, 8-p-chlorophenylthio-cyclic AMP, reference compound]
antifeeding activity ([2]; concentration of 1%, absence of IBMX): showed antifeeding activity | effect of addition of IBMX on antifeeding / pesticidal activity [2]: increased by addition of IBMX

NCC(O)c1ccc(F)cc1 (stereo not shown) [p-fluoro-phenylethanolamine]
% Leaf Remaining [2, 15]: < 5% | % Leaf Remaining [2, 16]: < 5% | % Leaf Remaining ([2]; Table 4, agonist 10^-3 gm/100 ml, IBMX 0.1 g/100 ml): 50% | % Leaf Remaining ([2]; Table 4, agonist 10^-3 gm/100 ml, No PDE Inhibitor): < 5%

Cc1cc(C)c(N=C2NCCN2)c(C)c1 [NC 13]
octopamine potency ratio [1]: 4.3 | Ka ratio to octopamine ([1]; Table 2, clonidines): 4.3 | Vmax (% OCT) [1, 13]: 112 % OCT

CN(CCCl)c1cc(Cl)c(N=C2NCCN2)c(Cl)c1 [NC 16]
Ka ratio to octopamine ([1]; Table 2, clonidines): 4.8 | Vmax (% OCT) [1, 13]: 6 % OCT

CN(C)CC(O)c1ccc(O)cc1 (racemic) [(±)-N,Ndimethyloctopamine, reference compound]
Ka^oct/Ka^(1) ratio (column head is drawing 15) [1, 6]: 0.9

NCC(O)c1ccccc1O (racemic) [(±)-o-octopamine, reference compound]
Ka^oct/Ka^(1) ratio (column head is drawing 15) [1, 6]: 0.05

NC[C@@H](O)c1ccc(O)cc1 [(+)-p-octopamine, reference compound]
Vmax (% OCT) [1, 14]: 81 ± 1 % OCT

Cc1cc(Cl)ccc1N=CN [DDCDM, di-demethylchlordimeform, reference compound]
activation of adenylate cyclase in nerve cord [4]: potent activators | Cyclic AMP Content (Fold-increase over Control) ([5]; +0.1 mM IBMX): 11.1 ± 2.7 Fold-increase over Control | Cyclic AMP Content (Fold-increase over Control) ([5]; -IBMX): 5.4 ± 3.8 Fold-increase over Control | rank order antifeeding effectiveness [2]: DDCDM+IBMX=NC7+IBMX>Octopamine+IBMX=DDCDM alone>NC7 alone>octopamine alone

CNC[C@H](O)c1cccc(O)c1 [(-)-phenylephrine, reference compound]
Ka^oct/Ka^(1) ratio (column head is drawing 15) [1, 6]: < 0.2

NCCc1ccc(O)c(O)c1 [dopamine, reference compound]
Vmax (% OCT) [1, 14]: 4 ± 1 % OCT | Ka^oct/Ka^(1) ratio (column head is drawing 15) [1, 6]: 0.26

CC(N)C(O)c1ccccc1 (racemic) [(±)-norephedrine, reference compound]
Ka^oct/Ka^(1) ratio (column head is drawing 15) [1]: < 0.09 | Vmax (% OCT) [1, 14]: 8 ± 1 % OCT

COc1cc(C(O)CN)ccc1O (racemic) [(±)-normetanephrine, reference compound]
Ka^oct/Ka^(1) ratio (column head is drawing 15) [1, 6]: 0.07

Clc1cc(Cl)c(N=C2NCCN2)cc1Cl [NC 3]
octopamine potency ratio [1]: 3.0 | Ka ratio to octopamine ([1]; Table 2, clonidines): 2.8 | Vmax (% OCT) [1, 13]: 80 % OCT

Brc1cccc(Br)c1N=C1NCCN1 [NC 6]
Ka ratio to octopamine ([1]; Table 2, clonidines): 2.1 | Vmax (% OCT) [1, 13]: 35 % OCT

Cc1cccc(C)c1N=C1NCCN1 [NC 4]
Ka ratio to octopamine ([1]; Table 2, clonidines): 0.41 | Vmax (% OCT) [1, 13]: 80 % OCT

Brc1ccc(N=C2NCCN2)cc1 [NC 12]
Ka ratio to octopamine ([1]; Table 2, clonidines): 3.0 | Vmax (% OCT) [1, 13]: 34 % OCT

Clc1cccc(Cl)c1N=C1NCCN1 [clonidine, reference compound]
% Leaf Remaining [2, 7]: 63% | % Leaf Remaining [2, 8]: 65% | % Leaf Remaining [2, 9]: 55% | % Leaf Remaining [2, 10]: 20% | % Leaf Remaining [2, 11]: 55% | % Leaf Remaining [2, 12]: 5% | effect of addition of IBMX on antifeeding / pesticidal activity [2]: substantial increases in the potency | Ka ratio to octopamine [1]: 0.95 | octopamine potency ratio [1]: 0.9 | Vmax (% OCT) ([1]; light organ homogenate): 35 % OCT | Vmax, % that of octopamine ([1]; light organ homogenate): 35%

Clc1ccc(N=C2NCCN2)c(Cl)c1 [NC 8]
octopamine potency ratio [1]: 3.7 | Ka ratio to octopamine ([1]; Table 2, clonidines): 3.7 | Vmax (% OCT) [1, 13]: 47 % OCT

Cc1cc(Cl)ccc1N=C1NCCN1 [NC 7, 2-(2-methyl, -4-chlorophenylimino)imidazolidine]
activation of adenylate cyclase in nerve cord [4]: potent activators | Cyclic AMP Content (Fold-increase over Control) ([5]; +0.1 mM IBMX): 13.9 ± 3.0 Fold-increase over Control | Cyclic AMP Content (Fold-increase over Control) ([5]; -IBMX): 2.2 ± 0.2 Fold-increase over Control | % Leaf Remaining [2, 11]: 85% | Ki for inhibition of feeding by the larvae ([2]; applied to leaves): 0.01 mg/leaf | rank order antifeeding effectiveness [2]: DDCDM+IBMX=NC7+IBMX>Octopamine+IBMX=DDCDM alone>NC7 alone>octopamine alone | behaviour of larvae feeding on treated leaves ([2]; in vivo): tremors, hyperactivity, and leaf walk-off behavior | effect of addition of IBMX on antifeeding / pesticidal activity [2]: substantial increases in the potency | octopamine potency ratio [1]: 9.8 | Ka ratio to octopamine ([1]; Table 2, clonidines): 9.8 | Vmax (% OCT) [1, 13]: 68 % OCT

CC(N)C(O)c1ccc(O)cc1 (racemic) [(±)-α-methyloctopamine, reference compound]
Vmax (% OCT) [1, 14]: 44 ± 2 % OCT | Ka^oct/Ka^(1) ratio (column head is drawing 15) [1, 6]: 0.05

NCC(O)c1ccc(O)c(Cl)c1 (stereo not shown) [m-chloro-octopamine]
Ka^oct/Ka^(1) ratio (column head is drawing 15) [1, 6]: 0.28
